{"source": "patent US20080166423A1", "about": "“Combination Medication for Treating the Effects of Stomach Acid Reduction Medication on Bone Integrity” (priority 2007, published 2008)", "origin": "cited, not measured here", "settings": "per day", "data": [{"smiles": "CC(=O)Nc1ccc(O)cc1", "note": "[Acetaminophen]", "values": [{"measurement": "daily dosage with known liver toxicity", "value": "> 4000", "unit": "mg"}]}]}
